Assay results from patent publication US8283353B2, “Fused ring compound and use thereof” (Takeda Pharmaceutical Company Limited, priority 2009, dated 2012).
Structures can show the parent of a compound that is named as a salt.

Tested on: Male SHRs
Assay: Antihypertensive effect: mean blood pressure in male SHRs after oral administration
Assay type: in vivo, rat
Conditions: male SHR, dose 3 mg/kg, MBP measured during 24 hours
Protocol: Male SHRs (28-40 weeks old, Japan SLC, Inc., Japan) were anesthetized with sodium pentobarbital (50 mg/kg, i.p.). The left femoral artery was cannulated with a polyethylene catheter filled with saline comprising heparin (200 U/mL). The catheter was exteriorized at the back of the neck and each SHR was individually housed in a cage and left two or four days to recover. The mean blood pressure (MBP) was obtained from the systemic blood pressure which was monitored from the femoral artery using a pressure transducer connected to a polygraph system (Nihon Kohden Corporation). The heart rate was measured from the blood pressure pulse intervals. The rats which had MBP over 150 mmHg were used for the experiment. When the blood pressure had stabilized, vehicle (0.5 w/v % methylcellulose) or compounds were orally administered. All compounds were suspended in 0.5 w/v % methylcellulose and orally administered at a volume of 2 mL/kg. The MBP was measured during 24 hours after the administration.

| Compound | Maximum MBP reduction (mmHg) |
| --- | --- |
| (−)-6-{[3-fluoro-2′-(5-oxo-4,5-dihydro-1,2,4-oxadiazol-3-yl)biphenyl-4-yl]methyl}-4-[trans-4-(2-hydroxy-1,2-dimethylpropoxy)cyclohexyl]-7-propyl[1,2,4]triazolo[1,5-a]pyrimidin-5(4H)-one potassium salt (retention time: long) [Example 459] | 64 |
| CCCc1c(Cc2ccc(-c3ccccc3-c3noc(=O)[nH]3)cc2)c(=O)n([C@H]2CC[C@H](OCC(C)(C)O)CC2)c2ccnn12 [Example 415, 4-[trans-4-(2-hydroxy-2-methylpropoxy)cyclohexyl]-6-{[2′-(5-oxo-4,5-dihydro-1,2,4-oxadiazol-3-yl)biphenyl-4-yl]methyl}-7-propylpyrazolo[1,5-a]pyrimidin-5(4H)-one potassium salt] | 63 |
